The target of one experiment is human mGluR1 (Homo sapiens (Human), UniProt Q13255). The experiment in a line: mGluR1 antagonism, L-glutamate induced intracellular calcium increase (FLIPR) in CHO cells stably expressing human mGluR1. Type of experiment: cell-based. To be noted: L-glutamate induced intracellular calcium, CHO cells expressing human mGluR1, FLIPR.
Another experiment has as its target human mGluR5a receptors (Homo sapiens (Human), UniProt P41594). Nature of the experiment: inhibition of glutamate-induced elevation of intracellular calcium in L(tk-) cells expressing human mGluR5a. The class given is cell-based. The following applies: for IC50: glutamate-induced intracellular calcium elevation, L(tk-) cells expressing human mGluR5a, read-out: mGluR5 IC50; for inhibition at 2 µM: LTK, read-out: mGluR5 % inhibition at 2 μM. A digest of the protocol: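 Compounds tested for inhibition of the glutamate-induced rise in intracellular calcium concentration in L(tk-) cells stably expressing human mGluR5a.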
Background: Calcium flux is commonly read through the fluorescence of an indicator in the cells.

human mGluR5a receptors, sequence (P41594 other isoform, or with tags, fused parts or gaps): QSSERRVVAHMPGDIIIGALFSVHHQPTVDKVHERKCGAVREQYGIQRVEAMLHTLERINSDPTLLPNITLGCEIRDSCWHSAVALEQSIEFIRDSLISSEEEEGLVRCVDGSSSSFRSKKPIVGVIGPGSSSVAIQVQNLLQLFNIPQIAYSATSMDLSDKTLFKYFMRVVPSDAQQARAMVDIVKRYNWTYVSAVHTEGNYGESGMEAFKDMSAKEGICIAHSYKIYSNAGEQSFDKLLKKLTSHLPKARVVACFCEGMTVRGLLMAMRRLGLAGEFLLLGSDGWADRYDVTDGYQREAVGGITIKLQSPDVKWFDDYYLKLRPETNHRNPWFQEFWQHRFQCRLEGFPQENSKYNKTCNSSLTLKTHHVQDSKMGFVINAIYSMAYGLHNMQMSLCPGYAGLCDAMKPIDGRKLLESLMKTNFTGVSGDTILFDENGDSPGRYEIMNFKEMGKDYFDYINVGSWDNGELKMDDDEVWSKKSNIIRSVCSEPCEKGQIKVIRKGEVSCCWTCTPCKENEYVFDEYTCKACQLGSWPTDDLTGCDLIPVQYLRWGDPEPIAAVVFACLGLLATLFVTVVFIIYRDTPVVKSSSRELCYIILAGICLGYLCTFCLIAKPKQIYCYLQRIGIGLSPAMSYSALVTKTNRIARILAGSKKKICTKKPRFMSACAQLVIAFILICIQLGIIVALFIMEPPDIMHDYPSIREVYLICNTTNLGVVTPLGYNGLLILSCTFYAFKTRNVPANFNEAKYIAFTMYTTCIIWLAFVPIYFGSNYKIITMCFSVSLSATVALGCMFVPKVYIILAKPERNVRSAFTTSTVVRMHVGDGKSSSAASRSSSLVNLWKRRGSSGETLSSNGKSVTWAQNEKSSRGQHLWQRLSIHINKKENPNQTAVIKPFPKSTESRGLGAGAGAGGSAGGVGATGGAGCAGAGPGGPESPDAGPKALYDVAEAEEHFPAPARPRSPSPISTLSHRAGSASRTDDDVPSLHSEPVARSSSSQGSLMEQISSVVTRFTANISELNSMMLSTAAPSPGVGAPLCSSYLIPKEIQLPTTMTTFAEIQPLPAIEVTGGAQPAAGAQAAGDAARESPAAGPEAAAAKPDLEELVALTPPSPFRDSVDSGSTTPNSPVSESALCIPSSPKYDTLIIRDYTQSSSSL
human mGluR1, sequence (Q13255 19-1194): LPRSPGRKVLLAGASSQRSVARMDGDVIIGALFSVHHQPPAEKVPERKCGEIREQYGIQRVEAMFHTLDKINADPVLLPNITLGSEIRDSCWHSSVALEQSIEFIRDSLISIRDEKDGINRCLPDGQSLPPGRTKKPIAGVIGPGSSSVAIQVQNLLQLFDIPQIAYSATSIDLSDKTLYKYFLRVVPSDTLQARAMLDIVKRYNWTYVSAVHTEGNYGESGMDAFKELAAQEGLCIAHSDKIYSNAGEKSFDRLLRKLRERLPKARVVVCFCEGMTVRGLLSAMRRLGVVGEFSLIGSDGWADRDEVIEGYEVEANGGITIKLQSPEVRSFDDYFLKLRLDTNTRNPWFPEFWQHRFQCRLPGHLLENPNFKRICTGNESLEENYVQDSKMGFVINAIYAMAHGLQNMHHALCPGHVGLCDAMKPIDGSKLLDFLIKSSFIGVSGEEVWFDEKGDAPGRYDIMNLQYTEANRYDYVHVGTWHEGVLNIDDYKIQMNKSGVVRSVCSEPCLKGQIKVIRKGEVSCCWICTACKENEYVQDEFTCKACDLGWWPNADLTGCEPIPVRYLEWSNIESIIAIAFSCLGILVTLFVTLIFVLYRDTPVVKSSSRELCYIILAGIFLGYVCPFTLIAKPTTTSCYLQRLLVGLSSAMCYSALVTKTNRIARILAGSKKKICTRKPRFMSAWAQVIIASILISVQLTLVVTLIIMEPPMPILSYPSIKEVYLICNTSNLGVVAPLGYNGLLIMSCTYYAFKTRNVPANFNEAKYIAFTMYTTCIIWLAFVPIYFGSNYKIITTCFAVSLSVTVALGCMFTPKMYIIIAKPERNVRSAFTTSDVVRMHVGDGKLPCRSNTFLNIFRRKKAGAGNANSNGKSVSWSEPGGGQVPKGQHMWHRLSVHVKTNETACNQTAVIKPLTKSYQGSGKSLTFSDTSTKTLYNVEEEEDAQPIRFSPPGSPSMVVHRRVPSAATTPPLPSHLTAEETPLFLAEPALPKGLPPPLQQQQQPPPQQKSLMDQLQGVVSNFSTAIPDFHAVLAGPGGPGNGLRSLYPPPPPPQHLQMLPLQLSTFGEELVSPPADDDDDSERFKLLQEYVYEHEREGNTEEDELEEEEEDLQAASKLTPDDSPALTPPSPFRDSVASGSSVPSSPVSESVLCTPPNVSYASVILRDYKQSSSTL

The IC50 is the concentration at which inhibition is half-maximal. On to `O=C1CN=C(n2cnc(C3CC3)n2)C=C2c3cccc(-c4nccs4)c3CCN12` [Example 88g, 2-(3-cyclopropyl-1H-1,2,4-triazol-1-yl)-9-(thiazol-2-yl)-7,8-dihydro-[1,4]diazepino[7,1-a]isoquinolin-5(4H)-one], for which the IC50 at human mGluR1 was found to be 761 nM; at human mGluR5a receptors it was 17 nM.

For the compound `COCCc1cn(C2=NCC(=O)N3CCc4c(cccc4-c4nccs4)C3=C2)cn1` [Example 88h, 2-(4-(2-methoxyethyl)-1H-imidazol-1-yl)-9-(thiazol-2-yl)-7,8-dihydro-[1,4]diazepino[7,1-a]isoquinolin-5(4H)-one], the IC50 was 1050 nM at human mGluR1 and 46 nM on human mGluR5a receptors.

Take `CCOCc1cn(C2=NCC(=O)N3CCc4c(cccc4-c4nccs4)C3=C2)cn1` [Example 88j, 2-(4-(ethoxymethyl)-1H-imidazol-1-yl)-9-(thiazol-2-yl)-7,8-dihydro-[1,4]diazepino[7,1-a]isoquinolin-5(4H)-one]: the results for the concentration for half-maximal inhibition (IC50) on human mGluR1 and at human mGluR5a receptors were 1860 nM and 56 nM, respectively.

As for `O=C1CN=C(n2cnc(C3CC3)c2)C=C2c3cccc(-c4cnccc4F)c3CCN12` [Example 88k, 2-(4-cyclopropyl-1H-imidazol-1-yl)-9-(4-fluoropyridin-3-yl)-7,8-dihydro-[1,4]diazepino[7,1-a]isoquinolin-5(4H)-one], the IC50 on human mGluR1 is 5860 nM; at human mGluR5a receptors, 69 nM.

Turning to `CCc1cccc2c1CCN1C(=O)CN=C(n3cnc(C(C)C)c3)C=C21` [Example 89, 9-ethyl-2-(4-isopropyl-1H-imidazol-1-yl)-7,8-dihydro-[1,4]diazepino[7,1-a]isoquinolin-5(4H)-one], the IC50 was determined as 650 nM at human mGluR1 and 28 nM on human mGluR5a receptors.

Consider `CCCc1cccc2c1CCN1C(=O)CN=C(n3cnc(C)c3)C=C21` [Example 90, 2-(4-methyl-1H-imidazol-1-yl)-9-propyl-7,8-dihydro-[1,4]diazepino[7,1-a]isoquinolin-5(4H)-one], for which the half-inhibitory concentration (IC50) at human mGluR1 was found to be 1500 nM; at human mGluR5a receptors it was 10 nM.

Take `COCc1cn(C2=NCC(=O)N3CCc4c(cccc4C4CCC4)C3=C2)cn1` [Example 91, 9-cyclobutyl-2-(4-(methoxymethyl)-1H-imidazol-1-yl)-7,8-dihydro-[1,4]diazepino[7,1-a]isoquinolin-5(4H)-one]: the IC50 stood at 220 nM on human mGluR1 and 9 nM at human mGluR5a receptors.

As for `Cc1ncn(C2=NCC(=O)N3CCc4c(cccc4C4CCC4)C3=C2)n1` [Example 92, 9-cyclobutyl-2-(3-methyl-1H-1,2,4-triazol-1-yl)-7,8-dihydro-[1,4]diazepino[7,1-a]isoquinolin-5(4H)-one], the IC50 is 636 nM on human mGluR1 and less than 1 nM at human mGluR5a receptors.

Consider `COCc1ncn(C2=NCC(=O)N3CCc4c(cccc4C4CC4)C3=C2)n1` [Example 93, 9-cyclopropyl-2-(3-(methoxymethyl)-1H-1,2,4-triazol-1-yl)-7,8-dihydro-[1,4]diazepino[7,1-a]isoquinolin-5(4H)-one], for which the IC50 at human mGluR1 came to 1500 nM; on human mGluR5a receptors, 3 nM.

For the compound `CC(C)c1cn(C2=NCC(=O)N3CCc4c(-c5ccc(F)nc5)ccnc4C3=C2)cn1` [Example 94, 4-(6-fluoropyridin-3-yl)-11-(4-isopropyl-1H-imidazol-1-yl)-5,6-dihydro-[1,4]diazepino[1,7-h][1,7]naphthyridin-8(9H)-one], the results for the IC50 at human mGluR1 and at human mGluR5a receptors were more than 10000 nM and 2700 nM, respectively.

For the compound `O=C1CN=C(n2cnc(C3CC3)c2)C=C2c3cccc(-c4ccc(F)nc4)c3CCN12` [Example 95-1, 2-(4-cyclopropyl-1H-imidazol-1-yl)-9-(6-fluoropyridin-3-yl)-7,8-dihydro-[1,4]diazepino[7,1-a]isoquinolin-5(4H)-one], the figures for the concentration for half-maximal inhibition (IC50) on human mGluR1 and on human mGluR5a receptors were 10000 nM and 20 nM, respectively.

Consider `O=C1CN=C(n2cnc(C3CC3)n2)C=C2c3cccc(-c4ccc(F)nc4)c3CCN12` [Example 95-2, 2-(3-cyclopropyl-1H-1,2,4-triazol-1-yl)-9-(6-fluoropyridin-3-yl)-7,8-dihydro-[1,4]diazepino[7,1-a]isoquinolin-5(4H)-one], for which the IC50 is more than 10000 nM on human mGluR1 and 11 nM on human mGluR5a receptors.

Consider `COCc1cn(C2=NCC(=O)N3CCc4c(cccc4C4CC4)C3=C2)cn1` [Example 96-1, 9-cyclopropyl-2-(4-(methoxymethyl)-1H-imidazol-1-yl)-7,8-dihydro-[1,4]diazepino[7,1-a]isoquinolin-5(4H)-one], for which the IC50 at human mGluR1 worked out at 540 nM; at human mGluR5a receptors, 6 nM.

Take `COCc1cn(C2=NCC(=O)N3CCc4c(ccc(F)c4C4CC4)C3=C2)cn1` [Example 96-2, 9-cyclopropyl-10-fluoro-2-(4-(methoxymethyl)-1H-imidazol-1-yl)-7,8-dihydro-[1,4]diazepino[7,1-a]isoquinolin-5(4H)-one]: the half-inhibitory concentration (IC50) at human mGluR1 stood at 289 nM; at human mGluR5a receptors, 2 nM.

Turning to `O=C1CN=C(n2cnc(C3CC3)c2)C=C2c3cccc(-c4cccnc4F)c3CCN12` [Example 97, 2-(4-cyclopropyl-1H-imidazol-1-yl)-9-(2-fluoropyridin-3-yl)-7,8-dihydro-[1,4]diazepino[7,1-a]isoquinolin-5(4H)-one], the IC50 was 5900 nM on human mGluR1 and 37 nM at human mGluR5a receptors.

As for `O=C1CN=C(n2cnc(C3CCC3)c2)C=C2c3cccc(-c4cccnc4F)c3CCN12` [Example 98, 2-(4-cyclobutyl-1H-imidazol-1-yl)-9-(2-fluoropyridin-3-yl)-7,8-dihydro-[1,4]diazepino[7,1-a]isoquinolin-5(4H)-one], the IC50 on human mGluR1 was found to be 2400 nM; at human mGluR5a receptors, 14 nM.

For `O=C1CN=C(n2cnc(C3CC3)c2)C=C2c3cccc(-c4ccc(F)nc4F)c3CCN12` [Example 99, 2-(4-cyclopropyl-1H-imidazol-1-yl)-9-(2,6-difluoropyridin-3-yl)-7,8-dihydro-[1,4]diazepino[7,1-a]isoquinolin-5(4H)-one], the IC50 at human mGluR1 was more than 2000 nM; on human mGluR5a receptors, 83 nM.

As for `Cc1cn(C2=NCC(=O)N3CCc4c(cccc4-c4cnc(C)o4)C3=C2)cn1` [Example 99a, 2-(4-methyl-1H-imidazol-1-yl)-9-(2-methyloxazol-5-yl)-7,8-dihydro-[1,4]diazepino[7,1-a]isoquinolin-5(4H)-one], the IC50 on human mGluR1 was more than 10000 nM; at human mGluR5a receptors it was 77 nM.

For orientation: inhibition means the relative decrease from the control value, in per cent. Consider `O=C1CN=C(n2cnc(C3CC3)c2)C=C2c3cccc(-c4cc(C(F)(F)F)n[nH]4)c3CCN12` [Example 99b, 2-(4-cyclopropyl-1H-imidazol-1-yl)-9-(3-(trifluoromethyl)-1H-pyrazol-5-yl)-7,8-dihydro-[1,4]diazepino[7,1-a]isoquinolin-5(4H)-one], for which the half-maximal inhibitory concentration (IC50) at human mGluR1 was more than 10000 nM. Further, the inhibition at 2 µM on human mGluR5a receptors was 41%.

In the case of `O=C1CN=C(n2cnc(C3CC3)c2)C=C2c3cccc(-c4ccc(O)nc4)c3CCN12` [Example 99c, 2-(4-cyclopropyl-1H-imidazol-1-yl)-9-(6-hydroxypyridin-3-yl)-7,8-dihydro-[1,4]diazepino[7,1-a]isoquinolin-5(4H)-one], the IC50 at human mGluR1 is more than 10000 nM. In addition, on human mGluR5a receptors, the inhibition at 2 µM worked out at 31%.

For the compound `COc1ccc(-c2cccc3c2CCN2C(=O)CN=C(n4cnc(C5CC5)c4)C=C32)cn1` [Example 99d, 2-(4-cyclopropyl-1H-imidazol-1-yl)-9-(6-methoxypyridin-3-yl)-7,8-dihydro-[1,4]diazepino[7,1-a]isoquinolin-5(4H)-one], the IC50 on human mGluR1 was more than 2000 nM; on human mGluR5a receptors, 347 nM.

Take `O=C1CN=C(n2cnc(C3CC3)c2)C=C2c3cccc(-c4cc[nH]n4)c3CCN12` [Example 99e, 2-(4-cyclopropyl-1H-imidazol-1-yl)-9-(1H-pyrazol-3-yl)-7,8-dihydro-[1,4]diazepino[7,1-a]isoquinolin-5(4H)-one]: the values for the IC50 at human mGluR1 and on human mGluR5a receptors were 8260 nM and 127 nM, respectively.

Regarding `O=C1CN=C(n2cnc(C3CC3)c2)C=C2c3cccc(-c4cnc(F)nc4)c3CCN12` [Example 99f, 2-(4-cyclopropyl-1H-imidazol-1-yl)-9-(2-fluoropyrimidin-5-yl)-7,8-dihydro-[1,4]diazepino[7,1-a]isoquinolin-5(4H)-one], the IC50 on human mGluR1 was 12000 nM; at human mGluR5a receptors, 102 nM.

Take `O=C1CN=C(n2cnc(C3CC3)c2)C=C2c3cccc(-c4ccnc(F)c4)c3CCN12` [Example 99g, 2-(4-cyclopropyl-1H-imidazol-1-yl)-9-(2-fluoropyridin-4-yl)-7,8-dihydro-[1,4]diazepino[7,1-a]isoquinolin-5(4H)-one]: the half-maximal inhibitory concentration (IC50) at human mGluR1 amounted to 18200 nM; on human mGluR5a receptors, 220 nM.

On to `COCc1cn(C2=NCC(=O)N3CCc4c(C5CC5)ccc(F)c4C3=C2)cn1` [Example 99i, 9-cyclopropyl-12-fluoro-2-(4-(methoxymethyl)-1H-imidazol-1-yl)-7,8-dihydro-[1,4]diazepino[7,1-a]isoquinolin-5(4H)-one], for which the half-inhibitory concentration (IC50) stood at 687 nM on human mGluR1 and 16 nM on human mGluR5a receptors.

Take `CO[C@H](C)c1cn(C2=NCC(=O)N3CCc4c(C5CC5)ccc(F)c4C3=C2)cn1` [Example 99j, (R)-9-cyclopropyl-12-fluoro-2-(4-(1-methoxyethyl)-1H-imidazol-1-yl)-7,8-dihydro-[1,4]diazepino[7,1-a]isoquinolin-5(4H)-one]: the IC50 was 3210 nM at human mGluR1 and 7 nM at human mGluR5a receptors.

As for `COCc1cn(C2=NCC(=O)N3CCc4c(cc(F)cc4C4CC4)C3=C2)cn1` [Example 99k, 9-cyclopropyl-11-fluoro-2-(4-(methoxymethyl)-1H-imidazol-1-yl)-7,8-dihydro-[1,4]diazepino[7,1-a]isoquinolin-5(4H)-one], the values for the IC50 on human mGluR1 and on human mGluR5a receptors were 561 nM and 3 nM, respectively.

Turning to `O=C1CN=C(n2cnc(C(F)F)c2)C=C2c3cccc(C4CC4)c3CCN12` [Example 99l, 9-cyclopropyl-2-(4-(difluoromethyl)-1H-imidazol-1-yl)-7,8-dihydro-[1,4]diazepino[7,1-a]isoquinolin-5(4H)-one], the IC50 came to 702 nM at human mGluR1 and 2 nM at human mGluR5a receptors.
